# Reference: patent publication US20240116946A1 (Gilead Sciences, Inc., priority 2022, published 2024)
# pEC50, pIC50: −log10 of the molar value. Read-outs that look alike come from different tables or passages of the source.
# What was measured:
# [1] = biological target: recombinant SARS-CoV-2 Main protease (Mpro) (Severe acute respiratory syndrome coronavirus 2 (2019-nCoV) (SARS-CoV-2), UniProt P0DTD1); assay: Cov Mpro Biochemical IC50 Assay
# SARS-CoV-2-NLuc = assay: microbe, parasite or virus in culture; format: cell-based, SARS Coronavirus 2
# [2] = recombinant SARS-CoV-2 Mpro 7.5 nM, fluorogenic peptide substrate 40 μM, read-out: MPro IC50
# [3] = Severe acute respiratory syndrome coronavirus, 48 h, read-out: MPro EC50
# [4] = recombinant SARS-CoV-2 Mpro, fluorogenic peptide substrate, read-out: MPro IC50
# [5] = Severe acute respiratory syndrome coronavirus, 48 h; read-out: MPro EC50
# [6] = MPro IC50, recombinant SARS-CoV-2 Mpro 7.5 nM, fluorogenic peptide substrate 40 μM
Compound,"pIC50 [1, 2]",pEC50 (SARS-CoV-2-NLuc; [3]),"pIC50 [1, 4]",other results
Cc1cc(F)cc(Cl)c1-c1cc2[nH]c(=O)n(-c3cncc4ccccc34)c(=O)c2s1 [Example 720],6.96,7.00,–,–
O=c1[nH]c2cc(-c3c(Cl)cccc3-c3cnc4n3CCC4)sc2c(=O)n1-c1cncc2ccccc12 [Example 529],8.07,7.47,–,–
"COc1cnc(Cl)c(-c2cc3c(s2)c(=O)n(-c2cncc4ccccc24)c(=O)n3CCC#N)c1 (single isomer, unassigned) [Example 1089, 3-(6-(2-chloro-5-methoxypyridin-3-yl)-3-(isoquinolin-4-yl)-2,4-dioxo-3,4-dihydrothieno[3,2-d]pyrimidin-1(2H)-yl)propanenitrile]",< 6.00,–,–,pEC50 (SARS-CoV-2-NLuc; read-out: MPro EC50): < 6.00
Cn1ncc2cncc(-n3c(=O)c4sc(-c5cc(C#N)ccc5Cl)cc4n(CCC#N)c3=O)c21 [Example 811],7.88,7.27,–,–
Cc1cc(-c2cccc(Cl)c2-c2ccc3c(=O)n(-c4cncc5ccccc45)c(=O)[nH]c3c2)cn2ncnc12 [Example 102],–,7.79,7.80,–
COCCOCCOc1c(C)cncc1-n1c(=O)[nH]c2cc(-c3ccccc3Cl)sc2c1=O [Example 215],–,7.03,7.97,–
O=c1[nH]c2cc(-c3cc(C(F)(F)F)ccc3Cl)ccc2c(=O)n1-c1cncc2ccccc12 [Example 180],–,5.71,5.43,–
Cn1ncc2cncc(-n3c(=O)[nH]c4cc(-c5c(Cl)cc(Cl)c6c5CCO6)sc4c3=O)c21 [Example 656],7.92,–,–,pEC50 (SARS-CoV-2-NLuc; [5]): 7.62
O=c1[nH]c2cc(-c3c(Cl)cccc3C3=CCOCC3)sc2c(=O)n1-c1cncc2ccccc12 [Example 522],8.01,8.29,–,–
COc1cc(-c2cc3c(=O)n(-c4cncc5ccccc45)c(=O)n(CCC#N)c3s2)c(Cl)cc1F [Example 867],8.01,7.88,–,–
"COc1ccc(Cl)c(-c2cc3[nH]c(=O)n(-c4cncc5sc(C(N)=O)c(C)c45)c(=O)c3s2)c1 [Example 1048, 4-(6-(2-chloro-5-methoxyphenyl)-2,4-dioxo-1,4-dihydrothieno[3,2-d]pyrimidin-3(2H)-yl)-3-methylthieno[2,3-c]pyridine-2-carboxamide]",8.28,–,–,pEC50 (SARS-CoV-2-NLuc; [5]): 8.01
"O=c1c2sc(-c3ncco3)cc2n(CC2CCCC2)c(=O)n1-c1cncc2ccccc12 [Example 170, 1-(cyclopentylmethyl)-3-(isoquinolin-4-yl)-6-(oxazol-2-yl)thieno[3,2-d]pyrimidine-2,4(1H,3H)-dione]",–,6.38,6.72,–
COc1ccc(Cl)c(-c2cc3[nH]c(=O)n(-c4cncc5ccc(C(F)F)cc45)c(=O)c3s2)c1 [Example 227],–,7.60,7.95,–
O=c1[nH]c2cc(-c3cc(OC(F)F)ccc3Cl)ccc2c(=O)n1-c1cncc2ccccc12 [Example 330],–,6.67,6.49,–
N#CCCn1c(=O)n(-c2cncc(F)c2)c(=O)c2sc(-c3ccc(F)cc3Cl)cc21 [Example 788],7.45,7.28,–,–
Cn1cnc(COc2cccc(Cl)c2-c2ccc3c(=O)n(-c4cncc5ccccc45)c(=O)[nH]c3c2)n1 [Example 88],–,6.20,6.63,–
"COc1cnc(Cl)c(-c2cc3c(s2)c(=O)n(-c2cncc4cccc(F)c24)c(=O)n3CCC#N)c1 [Example 1083, 3-(6-(2-chloro-5-methoxypyridin-3-yl)-3-(5-fluoroisoquinolin-4-yl)-2,4-dioxo-3,4-dihydrothieno[3,2-d]pyrimidin-1(2H)-yl)propanenitrile]",7.95,–,–,pEC50 (SARS-CoV-2-NLuc; [5]): 7.44
Cc1ccc2cncc(-n3c(=O)[nH]c4cc(-c5ccccc5Cl)ccc4c3=O)c2c1 [Example 109],–,6.37,6.58,–
O=c1[nH]c2cc(-c3ccccc3Cl)sc2c(=O)n1-c1cncc2cc(Cl)ccc12 [Example 590],6.71,6.52,–,–
CC(=O)N1CCN(c2ccc3cncc(-n4c(=O)[nH]c5cc(-c6ccccc6Cl)sc5c4=O)c3c2)CC1 [Example 387],–,7.52,> 8.60,–
COc1ccc(-n2cc(-c3cccc(Cl)c3-c3ccc4c(=O)n(-c5cncc6ccccc56)c(=O)[nH]c4c3)c(C)n2)cc1 [Example 283],–,7.02,6.62,–
Cn1ncc2cncc(-n3c(=O)[nH]c4cc(-c5cc(F)ccc5Cl)sc4c3=O)c21 [Example 663],7.84,7.78,–,–

Compound,"pIC50 [1, 2]",pEC50 (SARS-CoV-2-NLuc; [3]),"pIC50 [1, 4]",other results
COc1cc(-c2cc3[nH]c(=O)n(-c4cncc5nnn(C)c45)c(=O)c3s2)c(Cl)cc1F [Example 749],8.13,7.49,–,–
"COc1cc(-c2cc3c(s2)c(=O)n(-c2cncc4cnn(C)c24)c(=O)n3CCC#N)c(Cl)cc1Cl [Example 1017, 3-[6-(2,4-dichloro-5-methoxy-phenyl)-3-(1-methylpyrazolo[4,3-c]pyridin-7-yl)-2,4-dioxo-thieno[3,2-d]pyrimidin-1-yl]propanenitrile]",8.23,–,–,pEC50 (SARS-CoV-2-NLuc; [5]): 8.28
O=c1[nH]c2cc(-c3ccc4sccc4c3)ccc2c(=O)n1-c1cncc2ccccc12 [Example 49],–,4.89,< 4.00,–
COc1cc(-c2cc3c(s2)c(=O)n(-c2cncc4c2n(C)c(=O)n4C)c(=O)n3CCC#N)c(Cl)cc1F [Example 937],8.07,7.94,–,–
CC1(N2CCN(c3ccc4cncc(-n5c(=O)[nH]c6cc(-c7ccccc7Cl)sc6c5=O)c4c3)CC2)COC1 [Example 391],–,7.99,8.20,–
CS(=O)(=O)N1CC(Nc2ccc3cncc(-n4c(=O)[nH]c5cc(-c6ccccc6Cl)sc5c4=O)c3c2)C1 [Example 406],7.90,6.33,–,–
COCCn1ncc2cncc(-n3c(=O)c4sc(-c5cc(OC)c(F)cc5Cl)cc4n(CCC#N)c3=O)c21 [Example 912],8.31,8.36,–,–
CC(C)Oc1ccc(Cl)c(-c2cc3[nH]c(=O)n(-c4cncc5ccccc45)c(=O)c3s2)c1 [Example 346],–,6.62,7.13,–
N#CCCn1c(=O)n(-c2cncc3ccccc23)c(=O)c2sc(-c3cc(F)ccc3Cl)cc21 [Example 831],8.07,8.14,–,–
Cc1cc(F)ccc1-c1cc2[nH]c(=O)n(-c3cncc4ccccc34)c(=O)c2s1 [Example 177],–,6.86,7.05,–
N#CCn1c(=O)n(-c2cncc3cccnc23)c(=O)c2sc(-c3ccccc3Cl)cc21 [Example 710],> 8.36,7.65,–,–
COc1cc(-c2cc3[nH]c(=O)n(-c4cncc5cccc(Cl)c45)c(=O)c3s2)c(Cl)cc1F [Example 1078],8.05,–,–,pEC50 (SARS-CoV-2-NLuc; [5]): 8.02
Cc1cccc(-c2ccccc2)c1-c1ccc2c(=O)n(-c3cncc4ccccc34)c(=O)[nH]c2c1 [Example 97],–,6.58,6.40,–
"COc1cc(-c2cc3[nH]c(=O)n(-c4cncc5ccccc45)c(=O)c3cc2F)c(Cl)cc1F [Example 650, 7-(2-chloro-4-fluoro-5-methoxy-phenyl)-6-fluoro-3-(4-isoquinolyl)-1H-quinazoline-2,4-dione]",–,–,–,"pIC50 [1, 6]: 7.50; pEC50 (SARS-CoV-2-NLuc; [5]): 7.47"
COc1ccc(Cl)c(-c2cc3[nH]c(=O)n(-c4cncc5cnccc45)c(=O)c3s2)c1 [Example 582],8.05,7.50,–,–
COc1cc(-c2cc3c(s2)c(=O)n(-c2cncc4ccc(Cl)cc24)c(=O)n3CCC#N)c(Cl)cc1F [Example 946],8.17,7.89,–,–
"COc1cnc(Cl)c(-c2cc3c(s2)c(=O)n(-c2cncc4cnn(C)c24)c(=O)n3CCC#N)c1 [Example 1019, 3-(6-(2-chloro-5-methoxypyridin-3-yl)-3-(1-methyl-1H-pyrazolo[4,3-c]pyridin-7-yl)-2,4-dioxo-3,4-dihydrothieno[3,2-d]pyrimidin-1(2H)-yl)propanenitrile]",8.07,7.79,–,–
COc1cc(-c2cc3[nH]c(=O)n(-c4cncc(C5CC5)c4)c(=O)c3s2)c(Cl)cc1F [Example 753],–,–,–,"pIC50 [1, 6]: 8.16; pEC50 (SARS-CoV-2-NLuc; [5]): 7.84"
COc1cc(-c2cc3[nH]c(=O)n(-c4cncc(Cl)c4Cl)c(=O)c3s2)c(Cl)cc1F [Example 742],7.82,7.58,–,–
O=c1[nH]c2cc(-c3c(Cl)cccc3-c3ccccc3)ccc2c(=O)n1-c1cncc2ccccc12 [Example 103],–,7.08,6.41,–
COc1cc(-c2cc3c(s2)c(=O)n(-c2cncc4cc(F)ccc24)c(=O)n3CCC#N)c(Cl)cc1F [Example 951],8.02,8.27,–,–
